# According to paper PMC7118841 (Biomedicine & Pharmacotherapy, 2006):
# Read-outs that look alike come from different tables or passages of the source.
# Assays:
# SARS-V = assay type: cell-based, SARS coronavirus; details: read-out: EC50, SARS-V
# [1] = tested on: FluV A (N3H2/Ishikawa and H1N1/PR8); details: rhodamine-labeled virus, MDCK cells; 10 and 25 μM; cited from earlier work
# [2] = tested on: Ishikawa/AH3N2/(plaque purified) strain; details: read-out: EC50, MTT; Parent strain; cited from earlier work
# PfluV 2 = details: read-out: EC50, PfluV 2; MTT method; cited from earlier work
# [3] = tested on: FluV A R-b (HA Lys189Asn); details: read-out: EC50, MTT; strain R-b; cited from earlier work
# [4] = tested on: FluV A R-2 (HA Ile202Thr); details: read-out: EC50, Plaque reduction; strain R-2; cited from earlier work
# HIV-1 = details: read-out: EC50, HIV-1; MTT method; cited from earlier work
# FluV A [5] = details: read-out: EC50, FluV A; MTT method; cited from earlier work
# DFV = details: cited from earlier work
# [6] = tested on: FluV A R-c (HA Lys189Asn, Ile202Val); details: read-out: EC50, MTT; strain R-c; cited from earlier work
# FluV A [7] = details: read-out: EC50 against FluV A; cited from earlier work
# [8] = tested on: FluV A R-1 (HA Lys189Asn, Ile202Thr); details: read-out: EC50, Plaque reduction; strain R-1; cited from earlier work
# [9] = tested on: FluV A R-2 (HA Ile202Thr); details: read-out: EC50, MTT; strain R-2; cited from earlier work
# RSV = details: read-out: EC50, RSV; MTT method; cited from earlier work
# FluV A (H1N1/PR8) = details: cited from earlier work
# [10] = tested on: FluV A R-4 (HA Ile202Thr); details: read-out: EC50, MTT; strain R-4; cited from earlier work
# [11] = tested on: FluV A R-4 (HA Ile202Thr); details: read-out: EC50, Plaque reduction; strain R-4; cited from earlier work
# CDV = details: read-out: EC50, CDV; plaque reduction method; cited from earlier work
# FIPV = assay type: cell-based, feline infectious peritonitis virus; details: read-out: EC50, FIPV
# TGEV = assay type: cell-based, transmissible gastroenteritis virus of swine; details: read-out: EC50, TGEV
# MDCK cells = details: cited from earlier work
# [12] = tested on: FluV A R-1 (HA Lys189Asn, Ile202Thr); details: read-out: EC50, MTT; strain R-1; cited from earlier work
# [13] = tested on: FluV A R-b (HA Lys189Asn); details: read-out: EC50, Plaque reduction; strain R-b; cited from earlier work
# [14] = tested on: FluV A R-c (HA Lys189Asn, Ile202Val); details: read-out: EC50, Plaque reduction; strain R-c; cited from earlier work
# [15] = tested on: Ishikawa/AH3N2/(plaque purified) strain; details: read-out: EC50, Plaque reduction; Parent strain; cited from earlier work
substance,measurement,setting,value
(iPrNH3)6H[PTi2W10O38(O2)2]H2O [PM-523],EC50,SARS-V,> 50 µM
same,dequenching of fluorescence (fusion of FluV A envelope with cell membrane),[1],remarkably reduced
same,EC50,[2],8.7 ± 1.2 µM
same,EC50,PfluV 2,2.5 ± 1.3 µM
same,EC50,[3],63 ± 7 µM
same,EC50,[4],73.6 ± 10.8 µM
same,EC50,HIV-1,0.3 ± 0.1 µM
same,EC50,FluV A [5],5.6 ± 2 µM
same,antiviral activity against DFV,DFV,did not have antiviral activities
same,EC50,"DFV; read-out: EC50, DFV, MTT method",> 61.5 µM
same,EC50,[6],80.3 ± 6.8 µM
same,EC50,FluV A [7],2.4 µM
same,EC50,[8],74.5 ± 10.2 µM
same,EC50,[9],67.8 ± 6.5 µM
same,EC50,RSV,1.3 ± 0.5 µM
same,appearance of lungs of infected mice,"FluV A (H1N1/PR8); 2.4 mM PM-523 alone, data not shown",swollen and reddened due to congestion
same,mice survived on the 9th day,"FluV A (H1N1/PR8); 4.8 mM PM-523 aerosol every 12 hours for 4 days, 10 LD50 FluV A",half
same,survival at 14 days after the infection,FluV A (H1N1/PR8); 4.8 mM PM-523 alone,20%
same,EC50,[10],79 ± 10.2 µM
same,EC50,[11],88.1 ± 9.9 µM
same,EC50,CDV,7.3 ± 1.1 µM
same,EC50,FIPV,> 32 µM
same,EC50,TGEV,2.5 ± 0.6 µM
same,Percent viability of cells,"MDCK cells; single compound at 100 μM, untreated cells = 100%",81.1 ± 2.9%
same,Percent viability of cells,MDCK cells; single compound at 200 μM,89.3 ± 5.8%
same,Percent viability of cells,MDCK cells; single compound at 400 μM,85.2 ± 3.5%
same,EC50,[12],71.4 ± 6.8 µM
same,EC50,[13],66.7 ± 6.2 µM
same,EC50,[14],78.9 ± 9.4 µM
same,EC50,[15],6.6 ± 0.8 µM
